Data as given in patent US8592486B2, “Compounds for inflammation and immune-related uses” (Synta Pharmaceuticals Corp., priority 2005, dated 2013).
Counter-ions that a name gives are not always drawn. Like-named read-outs stand apart in the source and are kept apart here.

System: IL-2 production
Assay: Inhibition of IL-2 production in PHA-activated Jurkat cells (ELISA)
Type: cell-based, human
Details: read-out: IC50 (inhibition of IL-2 production)
Experimental: Jurkat cells were placed in a 96 well plate (0.5 million cells per well in 1% FBS medium) then a test compound of this invention was added at different concentrations. After 10 minutes, the cells were activated with PHA (final concentration 2.5 μg/mL) and incubated for 20 hours at 37° C. under CO2. The final volume was 200 μL. Following incubation, the cells were centrifuged and the supernatants collected and stored at −70° C. prior to assaying for IL-2 production. A commercial ELISA kit (IL-2 Eli-pair, Diaclone Research, Besancon, France) was used to detect production of IL-2, from which dose response curves were obtained. The IC50 value was calculated as the concentration at which 50% of maximum IL-2 production after stimulation was inhibited versus a non-stimulation control.

[1] = Homo sapiens, Jurkat, 20 h, Jurkat cells, PHA 2.5 μg/mL, 20 hours, IL-2 ELISA
[2] = Homo sapiens, Jurkat cells, PHA 2.5 μg/mL, 20 hours, IL-2 ELISA

Cc1ccc(-c2nnn[nH]2)cc1-c1ccc(NC(=O)c2c(F)cccc2F)cc1 [Compound 65, 2,6-Difluoro-N-[2′-methyl-5′-(1H-tetrazol-5-yl)-biphenyl-4-yl]-benzamide, sodium salt]
IC50 (Homo sapiens, Jurkat, 20 h): > 1000 nM

Cc1ccc(-c2nnc(N(C)C)s2)cc1-c1ccc(N(C)C(=O)c2c(F)cccc2F)cc1 [Compound 63, 2,6-Difluoro-N-{2′-methyl-5′-[5-(N,N-dimethylamino)-[1,3,4]thiadiazol-2-yl]-biphenyl-4-yl}-N-methyl-benzamide]
IC50 [1]: > 1000 nM

Cc1ccc(-c2nnc(N(C)C)s2)cc1-c1ccc(NC(=O)c2c(F)cccc2F)cc1 [Compound 64, 2,6-Difluoro-N-{2′-methyl-5′-[5-(N,N-dimethylamino)-[1,3,4]thiadiazol-2-yl]-biphenyl-4-yl}-benzamide]
IC50 [1]: 53 nM

CSc1nnc(-c2ccc(C)c(-c3ccc(NC(=O)c4c(F)cccc4F)cc3)c2)n1C [Compound 72, 2,6-Difluoro-N-[2′-methyl-5′-(4-methyl-5-methylsulfanyl-4H-[1,2,4]triazol-3-yl)-biphenyl-4-yl]-benzamide]
IC50 [1]: > 1000 nM

COc1ccc(-c2ccco2)cc1-c1ccc(NC(=O)c2ccncc2C)cc1 [Compound 47, 3-Methyl-N-[2′-methoxy-5′-(furan-2-yl)-biphenyl-4-yl]-isonicotinamide]
IC50 [1]: 59 nM

COc1ccc(-c2ncco2)cc1-c1ccc(NC(=O)c2ccncc2C)cc1 [Compound 50, 3-Methyl-N-[5′-(oxazol-2-yl)-2′-methoxy-biphenyl-4-yl]-isonicotinamide]
IC50 [1]: 23 nM

COc1ccc(-c2ncco2)cc1-c1ccc(NC(=O)c2c(F)cncc2F)cc1 [Compound 51, 3,5-Difluoro-N-[5′-(oxazol-2-yl)-2′-methoxy-biphenyl-4-yl]-isonicotinamide]
IC50 [1]: 11 nM

Cc1cnccc1C(=O)Nc1ccc(-c2cc(-c3nccs3)ccc2C)cc1 [Compound 14, 3-Methyl-N-(2′-methyl-5′-thiazol-2-yl-biphenyl-4-yl)-isonicotin-amide]
IC50 (Jurkat cells, PHA 2.5 μg/mL, 20 hours, IL-2 ELISA): 10 nM

COc1ccc(-c2ncco2)cc1-c1ccc(NC(=O)c2c(F)cccc2F)cc1 [Compound 13, 2,6-Difluoro-N-(2′-methoxy-5′-oxazol-2-yl-biphenyl-4-yl)-benzamide]
IC50 [1]: 6 nM

Cc1cnccc1C(=O)Nc1ccc(-c2cc(-c3nnn[nH]3)ccc2C)cc1 [Compound 44, 3-Methyl-N-[2′-methyl-5′-(1H-tetrazol-5-yl)-biphenyl-4-yl]-isonicotinamide]
IC50 [1]: > 1000 nM

O=C(Nc1ccc(-c2cc(-c3nccs3)ccc2Cl)cc1)c1c(F)cncc1F [Compound 57, 3,5-Difluoro-N-[5′-(thiazol-2-yl)-2′-chloro-biphenyl-4-yl]-isonicotinamide]
IC50 [1]: 3 nM

Cc1ccc(-c2cocn2)cc1-c1ccc(NC(=O)c2ccncc2F)cc1 [Compound 78, 3-Fluoro-N-[2′-methyl-5′-(oxazol-4-yl)-biphenyl-4-yl]-isonicotinamide]
IC50 [1]: 9 nM

Cc1ccc(-c2nncs2)cc1-c1ccc(NC(=O)c2ccncc2F)cc1 [Compound 61, 3-Fluoro-N-[5′-([1,3,4]thiadiazol-2-yl)-2′-methyl-biphenyl-4-yl]-isonicotinamide]
IC50 [1]: 6 nM

Cc1cnccc1C(=O)Nc1ccc(-c2cc(-c3ncco3)ccc2C)cc1 [Compound 7, 3-Methyl-N-(2′-methyl-5′-oxazol-2-yl-biphenyl-4-yl)-isonicotinamide, hydrochloride]
IC50 [2]: 8 nM

Cc1cnccc1C(=O)Nc1ccc(-c2cc(-c3cccnc3)ccc2C)cc1 [Compound 20, 3-Methyl-N-[5′-(pyridin-3-yl)-2′-methyl-biphenyl-4-yl]-isonicotinamide]
IC50 [1]: 8 nM

O=C(Nc1ccc(-c2cc(-c3ncco3)ccc2Cl)cc1)c1c(F)cccc1F [Compound 31]
IC50 [1]: 6 nM

Cc1ccc(-c2ccccn2)cc1-c1ccc(NC(=O)c2snnc2C)cc1 [Compound 24, 4-Methyl-[1,2,3]thiadazole-5-carboxylic acid [2′-methyl-5′-(pyridin-2-yl)-biphenyl-4-yl]-amide]
IC50 [1]: 15 nM

Cc1ccc(-c2nnco2)cc1-c1ccc(NC(=O)c2c(F)cncc2F)cc1 [Compound 68, 3,5-Difluoro-N-[2′-methyl-5′-([1,3,4]oxadiazol-2-yl)-biphenyl-4-yl]-isonicotinamide]
IC50 [1]: 3 nM

Cc1ccc(-c2nncs2)cc1-c1ccc(NC(=O)c2c(F)cncc2F)cc1 [Compound 53, 3,5-Difluoro-N-[5′-([1,3,4]thiadiazol-2-yl)-2′-methyl-biphenyl-4-yl]-isonicotinamide]
IC50 [1]: 6 nM

Cc1cc(-c2ccc(C)c(-c3ccc(NC(=O)c4c(F)cccc4F)cc3)c2)on1 [Compound 35, 2,6-Difluoro-N-[2′-methyl-5′-(3-methyl-isoxazole-5-yl)-biphenyl-4-yl]-benzamide]
IC50 [1]: 2 nM

COc1ccc(-c2cnco2)cc1-c1ccc(NC(=O)c2snnc2C)cc1 [Compound 25, 4-Methyl-[1,2,3]thiadiazole-5-carboxylic acid [2′-methoxy-5′-(oxazol-5-yl)-biphenyl-4-yl]-amide]
IC50 [1]: 3 nM

Cc1ccc(-c2cccnc2)cc1-c1ccc(NC(=O)c2snnc2C)cc1 [Compound 21, 4-Methyl-[1,2,3]thiadazole-5-carboxylic acid [2′-methyl-5′-(pyridin-3-yl)-biphenyl-4-yl]-amide]
IC50 [1]: 6 nM

Cc1cnccc1C(=O)Nc1ccc(-c2cc(-c3nnnn3C)ccc2C)cc1 [Compound 49, 3-Methyl-N-[2′-methyl-5′-(1-methyl-1H-tetrazol-5-yl)-biphenyl-4-yl]-isonicotinamide]
IC50 [1]: 12 nM

Cc1ccc(-c2nncs2)cc1-c1ccc(NC(=O)c2c(F)cccc2F)cc1 [Compound 59, 2,6-Difluoro-N-[2′-methyl-5′-([1,3,4]thiadiazol-2-yl)-biphenyl-4-yl]-benzamide]
IC50 [1]: 3 nM

Cc1ccc(N2CCOCC2)cc1-c1ccc(NC(=O)c2c(F)cccc2F)cc1 [Compound 43, 2,6-Difluoro-N-[2′-methyl-5′-(morpholino-4-yl)-biphenyl-4-yl]-benzamide]
IC50 [1]: 26 nM

COc1ccc(-c2cccs2)cc1-c1ccc(NC(=O)c2ccncc2C)cc1 [Compound 52, 3-Methyl-N-[5′-(thien-2-yl)-2′-methoxy-biphenyl-4-yl]-isonicotinamide]
IC50 [1]: 35 nM

Cc1ccc(-c2noc(=O)[nH]2)cc1-c1ccc(NC(=O)c2c(F)cccc2F)cc1 [Compound 42, 2,6-Difluoro-N-[2′-methyl-5′-(5-oxo-4,5-dihydro-[1,2,4]-oxadiazol-3-yl)-biphenyl-4-yl]-benzamide]
IC50 [1]: > 1000 nM

Cc1ccc(-c2ncnn2C)cc1-c1ccc(NC(=O)c2c(F)cccc2F)cc1 [Compound 66, 2,6-Difluoro-N-[2′-methyl-5′-(2-methyl-2H-[1,2,4]triazol-3-yl)-biphenyl-4-yl]-benzamide]
IC50 [1]: 8 nM

COc1ccc(-c2cnco2)cc1-c1ccc(NC(=O)c2c(F)cccc2F)cc1 [Compound 27]
IC50 [1]: 4 nM

O=C(Nc1ccc(-c2cc(-c3ncco3)ccc2Cl)cc1)c1c(F)cncc1F [Compound 45, 3,5-Difluoro-N-[5′-(oxazol-2-yl)-2′-chloro-biphenyl-4-yl]-isonicotinamide]
IC50 [1]: 50 nM

Cc1cnccc1C(=O)Nc1ccc(-c2cc(-c3nncs3)ccc2C)cc1 [Compound 60, 3-Methyl-N-[5′-([1,3,4]thiadiazol-2-yl)-2′-methyl-biphenyl-4-yl]-isonicotinamide]
IC50 [1]: 13 nM

Cc1cnccc1C(=O)Nc1ccc(-c2cc(-c3ncco3)ccc2N(C)C)cc1 [Compound 48, 3-Methyl-N-[5′-(oxazol-2-yl)-2′-(N,N-dimethylamino)-biphenyl-4-yl]-isonicotinamide]
IC50 [1]: 320 nM

Cc1ccc(-c2ccncc2)cc1-c1ccc(NC(=O)c2c(F)cccc2F)cc1 [Compound 30, 2,6-Difluoro-N-[2′-methyl-5′-(pyridine-4-yl)-biphenyl-4-yl]-benzamide]
IC50 [1]: 3 nM

Cc1cnccc1C(=O)Nc1ccc(-c2cc(-c3nccs3)ccc2Cl)cc1 [Compound 55, 3-Methyl-N-[5′-(thiazol-2-yl)-2′-chloro-biphenyl-4-yl]-isonicotinamide]
IC50 [1]: 6 nM

Cc1ccc(-c2ccccn2)cc1-c1ccc(NC(=O)c2c(F)cccc2F)cc1 [Compound 23, 2,6-Difluoro-N-[2′-methyl-5′-(pyridine-2-yl)-biphenyl-4-yl]-benzamide]
IC50 [1]: 5 nM

Cc1ccc(-c2nccs2)cc1-c1ccc(NC(=O)c2c(F)cccc2F)cc1 [Compound 15, 2,6-Difluoro-N-(2′-methyl-5′-thiazol-2-yl-biphenyl-4-yl)-benzamide]
IC50 [1]: 2 nM

Cc1cnccc1C(=O)Nc1ccc(-c2cc(-c3ccno3)ccc2C)cc1 [Compound 34, 3-Methyl-N-[5′-(isoxazol-5-yl)-2′-methyl-biphenyl-4-yl]-isonicotinamide, HCl salt]
IC50 [2]: 11 nM

Cc1csc(-c2ccc(C)c(-c3ccc(NC(=O)c4ccncc4C)cc3)c2)n1 [Compound 40, 3-Methyl-N-[5′-(4-methyl-thiazol-2-yl)-2′-methyl-biphenyl-4-yl]-isonicotinamide]
IC50 [1]: 11 nM

Cc1ccc(-c2nc(C(F)(F)F)cs2)cc1-c1ccc(NC(=O)c2c(F)cccc2F)cc1 [Compound 39]
IC50 [1]: 13 nM

Cc1ccc(-c2nnc(N)s2)cc1-c1ccc(NC(=O)c2c(F)cccc2F)cc1 [Compound 62, 2,6-Difluoro-N-[2′-methyl-5′-(5-amino-[1,3,4]thiadiazol-2-yl)-biphenyl-4-yl]-benzamide]
IC50 [1]: 19 nM
